Source: patent publication US20250368648A1, “MULTI-CYCLIC IRAK AND FLT3 INHIBITING COMPOUNDS AND USES THEREOF” (CHILDREN'S HOSPITAL MEDICAL CENTER, priority 2022, published 2025)

Experiments:
IRAK4 [1] = target: T1, IRAK4 (Homo sapiens, UniProt Q9NWZ3); assay: Reaction Biology NanoBRET target engagement assay, IRAK4; format: cell-based; conditions: HEK-293 cells transfected with Kinase-NanoLuc fusion vector, live cells
T1 sequence (Q9NWZ3 1-460): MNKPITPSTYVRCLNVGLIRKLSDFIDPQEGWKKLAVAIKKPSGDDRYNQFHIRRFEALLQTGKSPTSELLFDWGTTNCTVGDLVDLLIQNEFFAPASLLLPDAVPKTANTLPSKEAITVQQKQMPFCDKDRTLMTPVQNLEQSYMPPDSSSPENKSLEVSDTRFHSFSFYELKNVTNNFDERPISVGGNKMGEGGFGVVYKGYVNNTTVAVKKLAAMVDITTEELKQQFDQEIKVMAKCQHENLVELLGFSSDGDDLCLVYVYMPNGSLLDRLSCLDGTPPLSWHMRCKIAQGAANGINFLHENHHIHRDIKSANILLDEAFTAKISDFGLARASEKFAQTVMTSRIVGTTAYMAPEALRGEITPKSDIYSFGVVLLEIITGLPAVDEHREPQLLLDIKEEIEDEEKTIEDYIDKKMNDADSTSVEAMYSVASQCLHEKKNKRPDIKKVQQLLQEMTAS
Excerpt: The NanoBRET assay measures kinase engagement in real time in the context of the intact cell. Unlike the previously described biochemical kinase assay methodologies in Examples 47 and 48, the NanoBRET assay measures the binding and activity characteristics under equilibrium conditions using full-length kinases in the presence of cellular concentrations of ATP in live, uncompromised cells. […] The assay uses a Kinase-NanoLuc® fusion vector expressing a kinase protein to which a luciferase tag has been added, a cell-permeant fluorescent NanoBRET™ tracer, a NanoLuc® substrate, and an extracellular NanoLuc® inhibitor. Upon expression of the luciferase-tagged kinase, cells will produce a strong BRET signal only in the presence of the NanoBRET™ tracer. The extracellular NanoLuc® inhibitor ensures that the BRET signal observed emanates only from live cells. Because the BRET signal has tight distance constraints, addition of the test compound will decrease the BRET signal if the compound competes with the NanoBRET™ tracer for binding to the kinase domain. Under the appropriate tracer conditions established by the manufacturer, quantitative intracellular affinity and relative potency can then be determined using Mass Action model equations.
HEK-293 cells were purchased from ATCC. FuGENEHD Transfection Reagent, Kinase-NanoLucfusion plasmids, Transfection Carrier DNA, NanoBRETTracers and dilution buffer, NanoBRETNano-Glo Substrate, Extracellular NanoLucInhibitor were obtained from Promega.
Assays were conducted following Promega assay protocol with some modifications. HEK-293 Cells were transiently transfected with Kinase-NanoLucFusion Vector DNA by FuGENEHD Transfection Reagent. Testing compounds were delivered into 384 well assay plate by Echo 550 (LabcyteInc, Sunnyvale, CA). Transfected cells were harvested and mixed with NanoBRETTracer Reagent and dispensed into 384 well plates and incubated at 37° C. in 5% CO2 cell culture incubator for 1 hour. The NanoBRETNano-Glo Substrate plus Extracellular NanoLucInhibitor Solution were added into the wells of the assay plate and incubated for 2-3 minutes at room temperature. The donor emission wavelength (460 nm) and acceptor emission wavelength (600 nm) were measured in the EnVisionplate reader. The BRET Ratios were calculated. BRET Ratio=[(Acceptor sample÷Donor sample)−(Acceptor no-tracer control÷Donor no-tracer control)]. The IC50 values of compounds were calculated with Prism GraphPad program.
• 1). Cultivate HEK-293 cells (70-80% confluence) appropriately prior to assay. Trypsinize and collect HEK-293 cells. • 2). Prepare lipid: DNA complexes as follows: • a. Prepare a 10 μg/ml solution of DNA in Opti-MEM without serum that consists of the following ratios of carrier DNA and DNA encoding NanoLuc® fusion. […] of Transfection Carrier DNA, […] of NanoLuc fusion vector DNA and 1 mL of Opti-MEM without phenol red. Mix thoroughly. • b. Add 30 μl of FuGENE HD Transfection Reagent into each milliliter of DNA mixture to form lipid: DNA complex. • c. Mix by inversion 10 times. • d. Incubate at ambient temperature for 20 minutes to allow complexes to form. • 3). In a sterile, conical tube, mix 1 part of lipid:DNA complex with 20 parts of HEK-293 cells in suspension. Mix gently by inversion 5 times. • 4). Dispense cells+lipid: DNA complex into a sterile tissue culture dish and incubate for 22-24 hours.
Each test compound is delivered from the compound source plate to the wells of 384-well white NBS plate by Echo 550.
3. Preparation of Cells with NanoBRET™ Tracer Reagent • 1). Remove medium from dish with transfected HEK-293 cells via aspiration, trypsinize and allow cells to dissociate from the dish. • 2). Neutralize trypsin using medium containing serum and centrifuge at 200× g for 5 minutes to pellet the cells. Adjust the cell density to […] cells/mL in Opti-MEM without phenol red. • 3). Prepare Complete 20× NanoBRET™ Tracer Reagent with Tracer Dilution Buffer. • 4). […]

IRAK4 [2] = target: T1, IRAK4; assay: RBC HotSpot Kinase Assay, IRAK4; format: biochemical; set-up: purchased RBC (Reaction Biology) HotSpot assay; conditions: HotSpot functional assay, isolated kinase enzyme, 33P-ATP
Method in brief: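 Isolated kinases, possibly truncated or lacking regulatory receptor regions, were preincubated with compound for 20 min at room temp in 20 mM Hepes pH 7.5, 10 mM MgCl2, 1 mM EGTA, 2 mM DTT, 1% DMSO. Reactions were started with ^33P-ATP and run 2 h at room temperature; activity was read by P81 filter binding.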

## COc1cc2ncc(-c3nc(N[C@H]4CNCC[C@@H]4F)c(F)cc3F)n2nc1C(C)(O)C(F)(F)F (single isomer, unassigned) [Compound 77a]
IRAK4 [1]
  IC50: 0.4 nM
IRAK4 [2]
  IC50: 16 nM

## COc1cc2ncc(-c3nc(N[C@H]4CNC[C@@H]4F)c(F)cc3F)n2nc1C(C)(O)C(F)(F)F (single isomer, unassigned) [Compound 80a]
IRAK4 [1]
  IC50: 5 nM
IRAK4 [2]
  IC50: 24 nM

## COc1cc2ncc(-c3nc(N[C@@H]4CCCNC4)c(F)cc3F)n2nc1C(C)(O)C(F)(F)F (single isomer, unassigned) [Compound 81a]
IRAK4 [1]
  IC50: 0.6 nM
IRAK4 [2]
  IC50: 59 nM

## COc1cc2ncc(-c3nc(N[C@H]4CNCC[C@@H]4F)c(F)cc3F)n2nc1C1CC2(CCC2)C1 [Compound 10a, 3,5-difluoro-N-((3S,4S)-4-fluoropiperidin-3-yl)-6-(7-methoxy-6-(spiro[3.3]heptan-2-yl)imidazo[1,2-b]pyridazin-3-yl)pyridin-2-amine]
IRAK4 [1]
  IC50: 64 nM
IRAK4 [2]
  IC50: 22 nM

## COc1cc2ncc(-c3nc(N[C@H]4CNC[C@@H]4F)c(F)cc3F)n2nc1C1CC2(CCC2)C1 [Compound 12a, 3,5-difluoro-N-((3S,4S)-4-fluoropyrrolidin-3-yl)-6-(7-methoxy-6-(spiro[3.3]heptan-2-yl)imidazo[1,2-b]pyridazin-3-yl)pyridin-2-amine]
IRAK4 [1]
  IC50: 71 nM
IRAK4 [2]
  IC50: 6 nM

## COc1cc2ncc(-c3nc(N[C@H]4CNCC[C@@H]4F)c(F)cc3F)n2nc1C1CCC1 [Compound 15a, 6-(6-cyclobutyl-7-methoxyimidazo[1,2-b]pyridazin-3-yl)-3,5-difluoro-N-((3S,4S)-4-fluoropiperidin-3-yl)pyridin-2-amine]
IRAK4 [1]
  IC50: 1 nM
IRAK4 [2]
  IC50: 2 nM

## COc1cc2ncc(-c3nc(N[C@H]4CNCC[C@@H]4F)c(F)cc3F)n2nc1C12CC(C1)C2 [Compound 67a, 6-(6-(bicyclo[1.1.1]pentan-1-yl)-7-methoxyimidazo[1,2-b]pyridazin-3-yl)-3,5-difluoro-N-((3S,4S)-4-fluoropiperidin-3-yl)pyridin-2-amine]
IRAK4 [1]
  IC50: 5 nM
IRAK4 [2]
  IC50: 3 nM
